From patent US20050171358A1 (priority 2002, published 2005) come the findings set out here.

The structures appear in SMILES notation.

Test [1] deals with Colletotrichum lagenarium. The settings on record: 200 ppm spray on cucumber (3 leaf stage), inoculated next day; lesion numbers on first and second leaves after 7 days in green house, graded by Table 5.
For the next test, the system named is Pyricularia oryzae. The class given is in vivo. The settings on record: 200 ppm spray on rice (Koshihikari, 3 leaf stage), inoculated next day; lesion numbers on third leaves after 7 days in green house, graded by Table 5.

Take `O=C(NCc1cc(COc2ccccc2)no1)NC1CCCC1` [II-106, 3-(3-phenoxymethyl-5-isoxazolyl)methyl-1-cyclopentylurea]: the “Evaluation (effect for cucumber anthracnose)” value in test [1] was 2 (11˜20). In addition, the “Evaluation (effect for rice blast)” value in the test on Pyricularia oryzae is reported as 3 (6˜10).

`Cc1ccc(-c2cc(CNC(=O)c3ccc(C)c(F)c3)on2)cc1` [III-162, N-[(3-(4-tolyl)-5-isoxazolyl)methyl]-3-fluoro-4-methylbenzamide]: the “Evaluation (effect for cucumber anthracnose)” value in test [1] is 5 (0). Moreover, the “Evaluation (effect for rice blast)” value in the test on Pyricularia oryzae is given as 5 (0).

For `O=C(NCc1cc(-c2ccccc2)no1)c1cccc(Cl)c1` [III-123, N-[(3-phenyl-5-isoxazolyl)methyl]-3-chlorobenzamide], the “Evaluation (effect for cucumber anthracnose)” value in test [1] is given as 5 (0). The “Evaluation (effect for rice blast)” value with Pyricularia oryzae is 5 (0).

Consider `O=C(NCc1cc(-c2ccccc2Cl)no1)Oc1ccccc1` [I-28, phenyl{[3-(2-chlorophenyl)-5-isoxazolyl]methyl}carbamate], for which the “Evaluation (effect for cucumber anthracnose)” value in test [1] is 5 (0). In the test with Pyricularia oryzae, the “Evaluation (effect for rice blast)” value is given as 4 (1˜5).

Consider `CC(C)Cc1cc(CNC(=O)Oc2ccccc2)on1` [I-8, phenyl [(3-isobutyl-5-isoxazolyl)methyl]carbamate], for which, in test [1], the “Evaluation (effect for cucumber anthracnose)” value is given as 3 (6˜10). In the test on Pyricularia oryzae, the “Evaluation (effect for rice blast)” value was 3 (6˜10).

On to `CC(C)Cc1cc(CNC(=O)c2ccc3ccccc3c2)on1` [III-259, N-[(3-isobutyl-5-isoxazolyl)methyl]-2-naphthalenecarboxamide], for which, in test [1], the “Evaluation (effect for cucumber anthracnose)” value is 4 (1˜5). Besides, the “Evaluation (effect for rice blast)” value in the test with Pyricularia oryzae is given as 5 (0).

In the case of `COc1ccc(OCc2cc(CNC(=O)c3ccc(OC)cc3)on2)cc1` [IV-56, N-{[3-(4-methoxyphenyl)oxymethyl-5-isoxazolyl]methyl}-4-methoxybenzamide], the “Evaluation (effect for cucumber anthracnose)” value in test [1] is 2 (11˜20). Moreover, in the test with Pyricularia oryzae, the “Evaluation (effect for rice blast)” value is listed as 3 (6˜10).

On to `COc1ccc(C(=O)NCc2cc(COc3ccc([N+](=O)[O-])cc3)no2)cc1` [IV-60, N-{[3-(4-nitrophenyl)oxymethyl-5-isoxazolyl]methyl}-4-methoxybenzamide], for which, in test [1], the “Evaluation (effect for cucumber anthracnose)” value is recorded as 5 (0). In addition, the “Evaluation (effect for rice blast)” value in the test on Pyricularia oryzae is listed as 5 (0).

In the case of `COc1ccc(C(=O)NCc2cc(-c3ccc(OC)cc3)no2)cc1` [III-18, N-{[3-(4-methoxyphenyl)-5-isoxazolyl]methyl}-4-methoxy benzamide], in test [1], the “Evaluation (effect for cucumber anthracnose)” value was 5 (0). Further, the “Evaluation (effect for rice blast)” value with Pyricularia oryzae was 5 (0).

Turning to `COc1ccc(C(=O)NCc2cc(-c3ccccc3Cl)no2)cc1` [III-231, N-{[3-(2-chlorophenyl)-5-isoxazolyl]methyl}-4-methoxybenzamide], the “Evaluation (effect for cucumber anthracnose)” value in test [1] is given as 5 (0). Moreover, the “Evaluation (effect for rice blast)” value with Pyricularia oryzae is listed as 5 (0).

`O=C(NCc1cc(Cc2ccccc2)no1)NC1CCCCC1` [II-13, 1-[(3-benzyl-5-isoxazolyl)methyl]-3-cyclohexylurea]: the “Evaluation (effect for cucumber anthracnose)” value in test [1] is listed as 5 (0). In addition, the “Evaluation (effect for rice blast)” value with Pyricularia oryzae is reported as 5 (0).

With `Cc1ccc(C(=O)NCc2cc(-c3ccc(C)c(F)c3)no2)cc1` [III-73, N-{[3-(3-fluoro-4-methylphenyl)-5-isoxazolyl]methyl}-4-methylbenzamide], the “Evaluation (effect for cucumber anthracnose)” value in test [1] is on record as 4 (1˜5). Moreover, in the test with Pyricularia oryzae, the “Evaluation (effect for rice blast)” value was 5 (0).

Turning to `Cc1ccc(C(=O)NCc2cc(-c3ccc(S(C)(=O)=O)cc3)no2)cc1` [III-26, N-{[3-(4-mesylphenyl)-5-isoxazolyl]methyl}-4-methylbenzamide], the “Evaluation (effect for cucumber anthracnose)” value in test [1] was 5 (0). For the same molecule, the “Evaluation (effect for rice blast)” value in the test with Pyricularia oryzae is listed as 5 (0).

As to `O=C(NCc1cc(-c2ccc(Br)cc2)no1)c1ccccc1` [III-37, N-{[3-(4-bromophenyl)-5-isoxazolyl]methyl}benzamide], the “Evaluation (effect for cucumber anthracnose)” value in test [1] is 3 (6˜10). Further, the “Evaluation (effect for rice blast)” value in the test with Pyricularia oryzae was 5 (0).

With `COCc1cc(CNC(=O)c2ccc(OC)cc2)on1` [IV-111, N-[(3-methoxymethyl-5-isoxazolyl)methyl]-4-methoxybenzamide], the “Evaluation (effect for cucumber anthracnose)” value in test [1] is recorded as 3 (6˜10). Also, the “Evaluation (effect for rice blast)” value in the test with Pyricularia oryzae was 3 (6˜10).

In the case of `Cc1ccc(C(=O)NCc2cc(CCc3ccccc3)no2)cc1` [IV-35, N-{[3-(2-phenylethyl)-5-isoxazolyl]methyl}-4-methylbenzamide], in test [1], the “Evaluation (effect for cucumber anthracnose)” value is recorded as 5 (0). Besides, in the test on Pyricularia oryzae, the “Evaluation (effect for rice blast)” value was 5 (0).

For the molecule `COc1ccc(C(=O)NCc2cc(ON=C(C)C)no2)cc1` [III-250, N-[(3-isopropyliminoxy-5-isoxazolyl)methyl]-4-methoxybenzamide], the “Evaluation (effect for cucumber anthracnose)” value in test [1] is 2 (11˜20). Besides, in the test on Pyricularia oryzae, the “Evaluation (effect for rice blast)” value was 2 (11˜20).

With `O=C(NCc1cc(-c2ccccc2)no1)c1ccccn1` [III-174, (3-phenyl-5-isoxazolyl)methylaminocarbonyl-2-pyridine], in test [1], the “Evaluation (effect for cucumber anthracnose)” value was 4 (1˜5). The “Evaluation (effect for rice blast)” value in the test on Pyricularia oryzae was 4 (1˜5).

Turning to `COc1ccc(C(=O)NCc2cc(C(=O)Nc3ccccc3Cl)no2)cc1` [IV-96, N-{[3-(2-chlorophenyl)aminocarbonyl-5-isoxazolyl]methyl}-4-methoxybenzamide], in test [1], the “Evaluation (effect for cucumber anthracnose)” value is given as 4 (1˜5). Moreover, the “Evaluation (effect for rice blast)” value in the test on Pyricularia oryzae is on record as 4 (1˜5).

On to `COc1ccc(C(=O)NCc2cc(-c3nc4ccccc4s3)no2)cc1` [III-224, N-{[3-(benzo[d]thiazol-2-yl)-5-isoxazolyl]methyl}-4-methoxybenzamide], for which the “Evaluation (effect for cucumber anthracnose)” value in test [1] is 2 (11˜20). Besides, the “Evaluation (effect for rice blast)” value in the test with Pyricularia oryzae is listed as 2 (11˜20).

Take `O=C(NCc1cc(-c2ccc(Cl)cc2)no1)c1ccccc1` [III-34, N-{[3-(4-chlorophenyl)-5-isoxazolyl]methyl}benzamide]: the “Evaluation (effect for cucumber anthracnose)” value in test [1] is on record as 5 (0). Further, the “Evaluation (effect for rice blast)” value in the test on Pyricularia oryzae was 5 (0).

Consider `O=C(NCc1cc(-c2ccc(Cl)cc2)no1)Oc1ccccc1` [I-30, phenyl{[3-(4-chlorophenyl)-5-isoxazolyl)methyl]carbamate], for which, in test [1], the “Evaluation (effect for cucumber anthracnose)” value is listed as 5 (0). Moreover, in the test with Pyricularia oryzae, the “Evaluation (effect for rice blast)” value is listed as 5 (0).

Take `COc1ccc(C(=O)NCc2cc(CON=Cc3ccccc3)no2)cc1` [IV-74, {3-[(4-methoxyphenyl)carbonylaminomethyl]-5-isoxazolyl]methoxyiminobenzyl]: the “Evaluation (effect for cucumber anthracnose)” value in test [1] is reported as 3 (6˜10). Further, the “Evaluation (effect for rice blast)” value with Pyricularia oryzae was 4 (1˜5).

As to `COc1ccc(C(=O)NCc2cc(-c3ccc(C(C)(C)C)cc3)no2)cc1` [III-14, N-{[3-(4-t-butylphenyl)-5-isoxazolyl]methyl}-4-methoxybenzamide], in test [1], the “Evaluation (effect for cucumber anthracnose)” value was 3 (6˜10). Moreover, in the test with Pyricularia oryzae, the “Evaluation (effect for rice blast)” value is given as 5 (0).

As for `COC(=O)c1ccc(-c2cc(CNC(=O)c3ccc(C)cc3)on2)cc1` [III-52, N-{[3-(4-methoxycarbonylphenyl)-5-isoxazolyl]methyl}-4-methylbenzamide], the “Evaluation (effect for cucumber anthracnose)” value in test [1] is on record as 5 (0). Moreover, the “Evaluation (effect for rice blast)” value in the test on Pyricularia oryzae is 5 (0).

In the case of `O=C(NCc1cc(-c2ccccc2)no1)Nc1ccccc1Cl` [II-48, 1-[(3-phenyl-5-isoxazolyl)methyl]-3-(2-chlorophenyl)urea], the “Evaluation (effect for cucumber anthracnose)” value in test [1] is listed as 4 (1˜5). Besides, in the test with Pyricularia oryzae, the “Evaluation (effect for rice blast)” value was 3 (6˜10).

For `CSCc1cc(CNC(=O)NC2CCCCC2)on1` [II-114, 3-(3-methylthiomethyl-5-isoxazolyl)methyl-1-cyclohexylurea], the “Evaluation (effect for cucumber anthracnose)” value in test [1] is on record as 3 (6˜10). In addition, the “Evaluation (effect for rice blast)” value in the test on Pyricularia oryzae is given as 3 (6˜10).

For `COc1ccc(C(=O)NCc2cc(COc3cccc(C#N)c3)no2)cc1` [IV-52, N-{[3-(3-cyanophenyl)oxymethyl-5-isoxazolyl]methyl}-4-methoxybenzamide], in test [1], the “Evaluation (effect for cucumber anthracnose)” value is listed as 2 (11˜20). Also, in the test on Pyricularia oryzae, the “Evaluation (effect for rice blast)” value is on record as 3 (6˜10).

Consider `CCc1ccc(C(=O)NCc2cc(CC(C)C)no2)cc1` [III-258, N-[(3-isobutyl-5-isoxazolyl)methyl]-4-ethylbenzamide], for which the “Evaluation (effect for cucumber anthracnose)” value in test [1] was 4 (1˜5). The “Evaluation (effect for rice blast)” value in the test on Pyricularia oryzae was 5 (0).

Consider `COc1ccc(C(=O)NCc2cc(C(=O)NC3CCCC3)no2)cc1` [IV-120, N-[(3-cyclopentylaminocarbonyl-5-isoxazolyl)methyl]-4-methoxybenzamide], for which the “Evaluation (effect for cucumber anthracnose)” value in test [1] is on record as 2 (11˜20). Besides, the “Evaluation (effect for rice blast)” value with Pyricularia oryzae is listed as 3 (6˜10).

For `Cc1cccc(C(=O)NCc2cc(C(=O)Nc3ccccc3)no2)c1` [IV-116, N-[(3-phenylaminocarbonyl-5-isoxazolyl)methyl]-3-methylbenzamide], the “Evaluation (effect for cucumber anthracnose)” value in test [1] is recorded as 4 (1˜5). The “Evaluation (effect for rice blast)” value with Pyricularia oryzae is 5 (0).

For the molecule `COc1ccc(C(=O)NCc2cc(COc3ccc(C)cc3)no2)cc1` [IV-50, N-{[3-(4-methylphenyl)oxymethyl-5-isoxazolyl]methyl}-4-methoxybenzamide], the “Evaluation (effect for cucumber anthracnose)” value in test [1] is given as 4 (1˜5). Besides, in the test on Pyricularia oryzae, the “Evaluation (effect for rice blast)” value is 5 (0).

For the molecule `COc1ccc(C(=O)NCc2cc(/C=C/C(C)C)no2)cc1`, the “Evaluation (effect for cucumber anthracnose)” value in test [1] is reported as 4 (1˜5). For the same molecule, the “Evaluation (effect for rice blast)” value with Pyricularia oryzae is reported as 4 (1˜5).

In the case of `COc1ccc(C(=O)NCc2cc(C#Cc3ccccc3)no2)cc1` [IV-110, N-[(3-phenylethynyl-5-isoxazolyl)methyl]-4-methoxybenzamide], the “Evaluation (effect for cucumber anthracnose)” value in test [1] is 5 (0). Moreover, the “Evaluation (effect for rice blast)” value in the test with Pyricularia oryzae is reported as 5 (0).

With `CC(C)c1cc(CNC(=O)c2cc(Cl)nc(Cl)c2)on1` [III-243, N-[(3-isopropyl-5-isoxazolyl)methyl]-2,6-dichloropyridine-4-carboxamide], the “Evaluation (effect for cucumber anthracnose)” value in test [1] is listed as 1 (21˜41). The “Evaluation (effect for rice blast)” value with Pyricularia oryzae is recorded as 2 (11˜20).

As for `O=C(NCc1cc(CCc2ccccc2)no1)c1ccccc1` [IV-33, N-{[3-(2-phenylethyl)-5-isoxazolyl]methyl}benzamide], the “Evaluation (effect for cucumber anthracnose)” value in test [1] is given as 5 (0). Moreover, the “Evaluation (effect for rice blast)” value in the test with Pyricularia oryzae was 5 (0).
